Data set [1] has as its system RNA G-quadruplexes (rG4) in HeLa cell. Put plainly: Keth-seq of rG4 regions with or without PDS treatment. Type of data set: cell-based, human. The conditions noted are these: HeLa cell mRNA, 105 regions. The method, then:
The characterization of RNA G-quadruplexes (rG4) in vivo remains challenging. Because of its high specificity towards guanine, the rG4 structure is a good object of N3-kethoxal to probe. It has been reported that PDS treatment can induce the formation of rG4 inside cells based on immunofluorescence imaging. Keth-seq was tested for the ability to identify rG4 structures induced by PDS inside cells. Keth-seq libraries were prepared using mRNA isolated from HeLa cell with or without PDS treatment. Previously identified rG4 structure regions (n=13,423 from in vitro probing) were analyzed in the Keth-seq data, and detected hundreds of regions with potential secondary structure (FIG. 14d). […] As the regions that form rG4 in vivo are more […], their structures were compared in terms of GINI index. […] Two examples were included where the signal in the defined rG4 regions in the PDS sample is lower than that in the control sample (FIG. 7f).

In the next data set the test system is guanine. As to the kind of experiment: Reaction of N3-kethoxal with RNA nucleic bases and RNA oligos (HPLC, MALDI-TOF). Type of data set: biochemical. The method, then:
The reaction of N3-kethoxal and RNA was generally performed with the following protocol: 100 pmol RNA oligo and 1 μmol N3-kethoxal was incubated in total 10 μL solution in PBS buffer at 37° C. for 10 mins. […] The purified labelled RNA can be used for further studies such as mass spectrometry, gel electrophoresis and copper-free click reaction with biotin-DBCO.
MALDI-TOF-MS analysis of N3-kethoxal labelled RNA oligo. […] Meanwhile the buffer exchange occurred from PBS buffer to tris buffer that can be directly used in MALDI-TOF-MS experiment without extra desalt step. One microliter of product solution was mixed with one microliter matrix which include 8:1 volume ratio of 2′4′6′-trihydroxyacetophenone (THAP, 10 mg/mL in 50% CH3CN/H2O):ammonium citrate (50 mg/mL in H2O). Then the mixture was spotted on the MALDI sample plate, dried and analyzed by Bruker Ultraflextreme MALDI-TOF-TOF Mass Spectrometers.
The product of N3-kethoxal with for RNA nucleic bases was analyzed using LC-6AD (Shimadzu, Japan) HPLC instrument, which equipped with an Inertsil ODS-SP column ([…], 250×4.6 mm) (GL Science Inc. Japan). The phase A (100 mM TEAA buffer, pH=7.0) and phase B (CH3CN) were used as eluents with a flow rate of 1 mL/min at 35° C. (B conc.: 5-5-30%/0-5-30 min).

For data set [2], the system named is single-strand RNA (ssRNA). As to the kind of experiment: Selectivity of N3-kethoxal to ssRNA by denaturing gel electrophoresis. The format is biochemical. The source says: The complementary RNA oligoes FS1 (5'-[…] NO:1, Fluorescent RNA oligo) and […]
The test system of data set [3] is living mouse embryonic stem cells (mESCs). Put plainly: In vivo labeling of living mES cells, dot blot of isolated biotinylated RNA. Type of data set: cell-based. Here is the method:
In vivo study: 10 μL N3-kethoxal was added into the cell culture medium in 100 mm cell culture dish with nearly 80% confluent mES cells. After incubation at 37° C. in CO2 incubator for a specific time, the medium was aspirated and the cells were washed three times by PBS. The total RNA was isolated by Trizol™ reagent (Invitrogen, 15596026) or Qiagen RNeasy™ plus mini kit (Qiagen, 74134). mRNA was isolated by Dynabeads™ mRNA DIRECT™ Purification Kit (Invitrogen, 61011). The biotinylation step was same as in vitro study. The biotinylated RNA was purified by RNA clean & concentrator.
Dot blot assay: one microliter RNA (100 ng/uL) sample was spotted onto the Amersham Hybond-N+ membrane (RPN119B, GE Healthcare) and UV crosslinked to the membrane by UVP HL-2000 hybriLinker. The membrane was washed using 1×PBST (0.1% tween-20) and blocked with 5% nonfat dry milk in 1×PBST overnight at 4° C. After four times wash using 1×PBST with ten-minute interval, the streptavidin-horseradish peroxidase (1:15000 dilution, streptavidin-HRP, Life Technologies, S-911) in 1×PBST with 3% BSA was added and incubated at room temperature for 40 mins. Then then membrane was washed using 1×PBST with ten-minute interval again and developed by SuperSignal™ West Pico PLUS Chemiluminescent Substrate (Thermo Scientific, 34577). The membrane was washed by 1×PBST again and stained by methylene blue solution (0.02% methylene blue in 0.3 M sodium Acetate pH 5.2).

Data set [4] relates to N3-kethoxal labelled RNA. As to the kind of experiment: Reversibility of N3-kethoxal labelled RNA with excess GTP (MALDI-TOF, dot blot). Type of data set: physicochemical. Conditions: for time for almost complete removal of N3-kethoxal modification on labeled RNA: excessive GTP (50 mM). The method, then: Removal N3-kethoxal modification from N3-kethoxal labelled RNA. The detailed protocol of N3-kethoxal modification erasing is described below “N3-kethoxal-remove sample preparation” in the keth-seq protocol. Generally, the purified N3-kethoxal modified RNA was incubated with high concentration of GTP (½ volume of the reaction solution, final concentration 50 mM) at 37° C. for 6 hours or at 95° C. for 10 mins. Higher temperature benefits the removal the N3-kethoxal modification.

Another data set relates to RNA of mouse ES cells. As to the kind of experiment: Keth-seq RT stop distribution. The format is cell-based. The method, then: A library was prepared following icSHAPE protocol with slight changes (Spitale et al., Nature 519:486-90, 2015). The detailed protocol is described below. For in vitro library preparation, RNA was isolated and refolded in RNA folding mix buffer firstly (100 mM HEPES, pH 8.0, 100 mM NaCl, 10 mM MgCl2). The refolded RNA was treated with N3-kethoxal and then utilized for library construction. For in vivo study, N3-kethoxal was added into the cultural medium of mES cell and the RNA was isolated to be utilized for library construction.
Sequencing data processing. As the library structure is similar to icSHAPE technique, a similar strategy was used to preprocess the sequencing reads. Pipeline from icSHAPE protocol was used to conduct the data analysis, all the scripts can be accessed at URL github.com/qczhang/icSHAPE. Firstly, script readCollapse.pl was used to collapse the reads with default parameter. […] Enriched reactivity for each transcript was calculated by comparing kethoxal sample (foreground) versus control sample (background) using script calcEnrich.pl (-w factor5:scaling1 -x 0.25). […]

The subject of data set [5] is N3-kethoxal labelled RNA. Put plainly: Fixation of N3-kethoxal modification in RNA by borate buffer. Type of data set: physicochemical. Conditions: final concentration 50 mM. Here is the method: Fixation of N3-kethoxal modification in RNA. The labile N3-kethoxal modification in RNA can be fixed in the presence of borate buffer. The solution of N3-kethoxal labelled RNA was mixed with 1/10 volume of stock borate buffer (final concentration: 50 mM; stock borate buffer: 500 mM potassium borate, pH 7.0, pH was monitored while adding potassium hydroxide pellets to 500 mM boric acid). The borate buffer fixation was used in various steps of keth-seq protocol, see below.

Setting [6] is: 50 mM GTP, neutral buffer, 37° C., MALDI-TOF.

SMILES strings stand for the structures. Entries after “also recorded” stand apart in the source; their conditions may differ.

As to `NCCOc1cc(C(=O)Nc2cc(OCCN)c3ccccc3n2)nc(C(=O)Nc2cc(OCCN)c3ccccc3n2)c1` [PDS], in data set [1], the “GINI index of known rG4 regions vs control sample” value is on record as “higher GINI index than the control sample”.
On to `CC(OCCN=[N+]=[N-])C(=O)C(O)O` (centres unmarked) [N3-kethoxal, 3-(2-azidoethoxy)-1,1-dihydroxybutan-2-one], for which the “labelling of RNA oligo (MALDI-TOF molecular weight of product)” value in the data set with guanine (12 mer RNA oligo with 4 guanines) is on record as “all guanines (4 guanines) were modified”. Further, in the data set on guanine (G, A, C, U), the “reaction with four RNA nucleic bases (HPLC)” value was “can only react with guanine (G) and was inert with A, C, and U”. Besides, the “labeling activity compared with SHAPE reagent NAI” value in the data set on guanine (RNA oligo) is “higher labeling activity”. In data set [2] (double-stranded RNA), the “gel shift on double-stranded RNA after incubation” value is reported as “no such shift was detected”. In addition, in data set [2] (single-stranded RNA), the “gel shift on single-stranded RNA after incubation” value is listed as “a shift was observed”. For the same molecule, the cell permeability result in data set [3] (added directly to culture medium of living cells) is given as “highly cell-permeable; also recorded: could permeate the living cell efficiently even during one-minute incubation; also recorded: excellent cell permeability”. Besides, the “time to label DNA and RNA in living cells” value in data set [3] (living cells) is no more than 5 min. Also, in data set [3] (mESCs, 1, 5, 10, 15, 20 mins), the “dot blot signal saturation with incubation time” value is reported as “saturated within five minutes”. Also, the “N3-kethoxal modification in mRNA after 10 mins incubation” value in the data set with N3-kethoxal labelled RNA [4] (50 mM GTP, 95° C., dot blot) is “removed thoroughly”. Further, in the data set with N3-kethoxal labelled RNA [4] (setting [6]), the “kethoxal modification after 2 h incubation” value is listed as “largely removed” and the “kethoxal modification after 6 h incubation” value is recorded as “almost removed”. Further, in the data set on N3-kethoxal labelled RNA [4] (37° C.), the “time for almost complete removal of N3-kethoxal modification on labeled RNA” value was no more than 6 h. Also, the “time for almost complete removal of N3-kethoxal modification on labeled RNA” value in the data set on N3-kethoxal labelled RNA [4] (95° C.) is no more than 0.167 h. Also, in the data set with RNA of mouse ES cells (N3-kethoxal sample), the “guanine share of RT-stopped sites among all reads” value is greater than 80%. Also, in the data set on RNA of mouse ES cells (mES cell, 1 min vs 5 mins treatment), the “G-stop sites with treatment time (keth-seq)” value is reported as “G-stop sites were increased from 1 min to 5 mins”. For the same molecule, in the data set on N3-kethoxal labelled RNA [5], the “stability of N3-kethoxal labeled RNA in borate buffer” value is “stabilized in borate buffer”.

The record behind these values is patent publication US12428666B2, “Compositions and methods related to kethoxal derivatives” (The University of Chicago, priority 2018, dated 2025).
